This note sets out measurements from patent US20130252943A1, “BICYCLIC OXAZOLE LACTAMS AS ALLOSTERIC MODULATORS OF MGLUR5 RECEPTORS” (VANDERBILT UNIVERSITY, priority 2012, published 2013).

The target in data set [1] is human mGluR5 (Homo sapiens, UniProt P41594). Put plainly: Cell-based functional Ca2+ mobilization assay (FDSS), potentiation of glutamate EC20 response, H10H cell line. Particulars: HEK H10H cells; for Emax: maximum average response at a single concentration, as percent of maximal glutamate response, glutamate EC20; for EC50: positive allosteric modulation in presence of glutamate EC20, concentration in mol/L. The source says:
Human mGluR5a cDNA in pCMV6-XL6 mammalian expression plasmid was purchased from OriGene Technologies, Inc. (catalogue number SC326357) and subcloned into pcDNA3.1(−). Human embryonic kidney (HEK)293A cells were then transfected with human mGluR5a pcDNA3.1(−) using LipofectAmine-2000 (Invitrogen) and monoclones were selected and tested for functional response using a Ca^2+ mobilization assay. Monoclones were named for the species (“H” for human) plus the location on the plate (e.g. “10H”).
HEK cells transfected with the human mGluR5a receptor (H10H or H12H cell line) were plated at 15,000 cells/well in clear-bottomed poly-D-lysinecoated assay plates (BD Falcon) in glutamate-glutamine-free growth medium and incubated overnight at 37° C. and 5% CO2. Cell-lines used were either the H10H or H12H cell-lines expressing the human mGluR5 receptor. The following day, the growth medium was removed and the cells were washed with assay buffer containing 1× Hank's balanced salt solution (Invitrogen, Carlsbad, Calif.), 20 mM HEPES, 2.5 mM probenecid, pH 7.4 and left with 20 μL of this reagent. Following this step, the cells were loaded with calcium indicator dye, fluo-4 AM, to a final concentration of 2 μM and incubated for 40-45 min at 37° C. The dye solution was removed and replaced with assay buffer. Cell plates were held for 10-15 min at room temperature and were then loaded into the Functional Drug Screening System 6000 (FDSS 6000, Hamamatsu, Japan).
After establishment of a fluorescence baseline for about 3 seconds, the compounds of the present invention were added to the cells, and the response in cells was measured. 2.3 minutes later an EC20 concentration of the mGluR5 receptor agonist glutamate was added to the cells, and the response of the cells was measured for about 1.7 minutes. All test compounds were dissolved and diluted to a concentration of 10 mM in 100% DMSO and then serially diluted into assay buffer for a 2× stock solution in 0.6% DMSO; stock compounds were then added to the assay for a final DMSO concentration of 0.3% after the first addition to the assay well. Calcium fluorescence measures were recorded as fold over basal fluorescence; raw data was then normalized to the maximal response to glutamate.
The concentration-response curves of compounds of the present invention, obtained in the presence of EC20 of mGluR5 receptor agonist glutamate to determine positive allosteric modulation, were generated using Microsoft Excel with IDBS XLFit add-ins. The raw data file containing all time points was used as the data source in the analysis template. This was saved by the FDSS as a tab-delimited text file. Data were normalized using a static ratio function (F/F0) for each measurement of the total 350 values per well divided by each well's initial value. Data was then reduced as to peak amplitudes (Max—Initial Min) using a time range that starts approximately 1 second after the glutamate EC20 addition and continues for approximately 40 seconds. This is sufficient time to capture the peak amplitude of the cellular Calcium response. Individual amplitudes were expressed as % EMax by multiplying each amplitude by 100 and then dividing the product by the mean of the amplitudes derived from the glutamate ECMax-treated wells. pEC50 values for test compounds were generated by fitting the normalized values versus the log of the test compound concentration (in mol/L) using a 4 parameter logistic equation where none of the parameters were fixed. Each of the three values collected at each concentration of test compound were weighted evenly. Individual values falling outside the 95% prediction limits of the curve fit were automatically excluded from the fit. […] These two methods are in good agreement for curves with a clear plateau at the high concentration range. […] For consistency purposes across the range of potencies observed, all EMax values reported in this application are calculated using the maximum average response at a single concentration. […]

Structures are written as SMILES.

human mGluR5, sequence (P41594 21-1180 isoform P41594-2 limits assumed): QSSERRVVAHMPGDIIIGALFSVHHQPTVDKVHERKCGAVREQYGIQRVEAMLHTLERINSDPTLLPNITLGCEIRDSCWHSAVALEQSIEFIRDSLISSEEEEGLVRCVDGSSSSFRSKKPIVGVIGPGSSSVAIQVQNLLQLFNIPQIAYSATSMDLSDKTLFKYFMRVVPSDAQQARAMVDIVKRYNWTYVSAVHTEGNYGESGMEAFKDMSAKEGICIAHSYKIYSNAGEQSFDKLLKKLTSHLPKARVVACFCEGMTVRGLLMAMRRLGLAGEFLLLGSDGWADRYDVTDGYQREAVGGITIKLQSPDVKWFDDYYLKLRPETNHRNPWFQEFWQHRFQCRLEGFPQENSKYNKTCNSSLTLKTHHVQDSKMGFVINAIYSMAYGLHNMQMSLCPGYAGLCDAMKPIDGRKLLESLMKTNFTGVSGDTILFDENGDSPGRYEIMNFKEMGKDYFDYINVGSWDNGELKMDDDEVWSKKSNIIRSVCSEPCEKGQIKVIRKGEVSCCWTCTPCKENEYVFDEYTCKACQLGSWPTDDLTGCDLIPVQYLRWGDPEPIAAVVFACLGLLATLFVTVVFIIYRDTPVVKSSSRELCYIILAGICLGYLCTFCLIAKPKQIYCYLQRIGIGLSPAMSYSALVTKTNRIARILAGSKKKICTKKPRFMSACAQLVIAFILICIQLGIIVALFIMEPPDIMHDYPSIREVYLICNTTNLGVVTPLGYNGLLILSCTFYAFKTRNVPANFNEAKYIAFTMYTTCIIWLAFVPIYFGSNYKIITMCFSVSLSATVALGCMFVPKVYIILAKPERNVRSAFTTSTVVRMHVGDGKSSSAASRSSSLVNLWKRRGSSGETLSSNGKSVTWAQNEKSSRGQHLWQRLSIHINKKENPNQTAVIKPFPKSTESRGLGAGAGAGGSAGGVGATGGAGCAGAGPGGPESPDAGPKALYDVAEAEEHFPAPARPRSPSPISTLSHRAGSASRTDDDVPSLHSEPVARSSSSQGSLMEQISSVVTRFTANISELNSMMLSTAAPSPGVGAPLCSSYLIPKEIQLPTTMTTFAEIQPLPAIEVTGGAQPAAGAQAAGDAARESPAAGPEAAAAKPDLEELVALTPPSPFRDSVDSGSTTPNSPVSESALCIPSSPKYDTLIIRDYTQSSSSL

With `CC1Cc2nc(COc3ccccc3)oc2C(=O)N1c1ccc(F)cc1` (racemic) [Compound B27, (rac)-5-(4-fluoro-phenyl)-6-methyl-2-phenoxymethyl-6,7-dihydro-5H-oxazolo[5,4-c]pyridin-4-ONE], in data set [1], the Emax came out at 64% and the EC50 is 575 nM.
The compound `O=C1c2oc(COc3ccccc3)nc2CCN1c1ccc(F)cc1` [Compound B1, 5-(4-fluoro-phenyl)-2-phenoxymethyl-6,7-dihydro-5H-oxazolo[5,4-c]pyridin-4-one] returned a melting point of 135.8 °C. In data set [1], the Emax is 83% and the half-maximal effective concentration (EC50) is 447 nM.
For `O=C1c2oc(COc3ccccc3)nc2CCN1c1ccccc1F` [Compound B2] the same measures were 116.1 °C, 74% and 1100 nM.
In the same order, the values of `O=C1c2oc(COc3ccccc3)nc2CCN1c1cccc(F)c1` [Compound B3] are 132.5 °C, 71% and 1320 nM.
The compound `O=C1c2oc(COc3ccccc3)nc2CCN1c1cccc(F)c1F` [Compound B4] yielded a melting point of 137.2 °C. For the same compound, in data set [1], the Emax was 75% and the EC50 was 646 nM.
Regarding `O=C1c2oc(COc3ccccc3)nc2CCN1c1c(F)cccc1F` [Compound B5], in data set [1], the Emax was 73% and the EC50 is 891 nM.
Compound `O=C1c2oc(COc3ccccc3)nc2CCN1c1ccc(F)c(F)c1` [Compound B6] registered a melting point of 151.7 °C. For the same compound, in data set [1], the Emax was found to be 77% and the EC50 was 501 nM.
Take `O=C1c2oc(COc3ccccc3)nc2CCN1c1cc(F)cc(F)c1` [Compound B7]: the melting point was determined as 150.7 °C. Moreover, in data set [1], the maximum response (Emax) was found to be 63% and the half-maximal effective concentration (EC50) is 1510 nM.
For `O=C1c2oc(COc3ccccc3)nc2CCN1c1ccccn1` [Compound B8] the same measures were 123.3 °C, 32% and greater than 30200 nM.
`O=C1c2oc(COc3ccccc3)nc2CCN1c1cccnc1` [Compound B9] came in with a melting point of 188.7 °C. In data set [1], the Emax was 38% and the EC50 was greater than 30200 nM.
On to `O=C1c2oc(COc3ccccc3)nc2CCN1c1ccncc1` [Compound B10], for which the melting point was determined as 130.9 °C. Also, in data set [1], the Emax stood at 49% and the EC50 was greater than 10000 nM.
In the same order, the values of `O=C1c2oc(COc3ccccc3)nc2CCN1c1ccc(F)cn1` [Compound B11] are 131.9 °C, 62% and 2140 nM.
In the same order, the values of `O=C1c2oc(COc3ccccc3)nc2CCN1c1cncc(F)c1` [Compound B12] are 133.1 °C, 27% and greater than 30200 nM.
On to `O=C1c2oc(COc3ccccc3)nc2CCN1c1ccccc1` [Compound B13], for which the melting point was found to be 131.7 °C. Further, in data set [1], the Emax came out at 76% and the EC50 was 1120 nM.
For `Cc1cccc(N2CCc3nc(COc4ccccc4)oc3C2=O)n1` [Compound B14] the same measures were 116.3 °C, 53% and greater than 10000 nM.
Consider `Cc1ccc(N2CCc3nc(COc4ccccc4)oc3C2=O)nc1` [Compound B15], for which the melting point was 132.4 °C. In addition, in data set [1], the Emax stood at 61% and the EC50 was greater than 10000 nM.
For `Cc1ccnc(N2CCc3nc(COc4ccccc4)oc3C2=O)c1` [Compound B16] the same measures were greater than 300 °C, 38% and greater than 10000 nM.
In the case of `Cc1cccnc1N1CCc2nc(COc3ccccc3)oc2C1=O` [Compound B17], the melting point was found to be 138.8 °C. Moreover, in data set [1], the Emax came to 43% and the concentration for a half-maximal effect (EC50) is greater than 10000 nM.
Regarding `Cc1cc(N2CCc3nc(COc4ccccc4)oc3C2=O)ncc1F` [Compound B21], the melting point was 125.7 °C. Also, in data set [1], the Emax was 56% and the EC50 was greater than 10000 nM.
In the same order, the values of `COc1nc(N2CCc3nc(COc4ccccc4)oc3C2=O)ncc1F` [Compound B22, 5-(5-fluoro-4-methoxy-pyrimidin-2-yl)-2-phenoxymethyl-6,7-dihydro-5H-oxazolo[5,4-c]pyridin-4-one] are 216.7 °C, 65% and 1290 nM.
The compound `COc1nccc(N2CCc3nc(COc4ccccc4)oc3C2=O)n1` [Compound B23] returned a melting point of 142 °C. Besides, in data set [1], the maximum response (Emax) worked out at 53% and the 50% effective concentration (EC50) was 3090 nM.
In turn, `Cc1cncc(N2CCc3nc(COc4ccccc4)oc3C2=O)n1` [Compound B24] had a melting point of 138.8 °C. Further, in data set [1], the Emax turned out to be 44% and the concentration giving a half-maximal response (EC50) is greater than 10000 nM.
In the same order, the values of `COc1nccnc1N1CCc2nc(COc3ccccc3)oc2C1=O` [Compound B25] are 131.1 °C, 47% and greater than 10000 nM.
In the case of `CC1CN(c2ccc(F)cc2)C(=O)c2oc(COc3ccccc3)nc21` (stereo not shown) [Compound B28], in data set [1], the Emax worked out at 79% and the EC50 is 646 nM.
`O=C1NCCc2nc(COc3ccccc3)oc21` [Compound B29, 2-phenoxymethyl-6,7-dihydro-5H-oxazolo[5,4-c]pyridin-4-one] displayed a melting point of 148.5 °C. In addition, in data set [1], the Emax was 21% and the EC50 was greater than 30200 nM.
In the case of `CN1CCc2nc(COc3ccccc3)oc2C1=O` [Compound B33, 5-methyl-2-phenoxymethyl-6,7-dihydro-5H-oxazolo[5,4-c]pyridin-4-one], in data set [1], the maximum response (Emax) is 35% and the concentration giving a half-maximal response (EC50) was greater than 30200 nM.
In the case of `O=C1c2oc(COc3ccccc3)nc2CCN1CC1CC1` [Compound B34], the melting point is 119.2 °C. Besides, in data set [1], the Emax was determined as 68% and the concentration giving a half-maximal response (EC50) was 3470 nM.
On to `C[C@@H](N1CCc2nc(COc3ccccc3)oc2C1=O)C(C)(C)C` [Compound B35, (R)-2-phenoxymethyl-5-(1,2,2-trimethyl-propyl)-6,7-dihydro-5H-oxazolo[5,4-c]pyridin-4-one], for which, in data set [1], the Emax is 54% and the 50% effective concentration (EC50) was 977 nM.
Take `O=C1c2oc(COc3ccccc3)nc2CCN1Cc1ccccc1` [Compound B36]: in data set [1], the Emax came out at 59% and the EC50 is 891 nM.
In the same order, the values of `O=C1NCCCc2nc(COc3ccccc3)oc21` [Compound B37, 2-phenoxymethyl-5,6,7,8-tetrahydro-3-oxa-1,5-diaza-azulen-4-one] are 21% and greater than 30200 nM.
Take `CN1CCCc2nc(COc3ccccc3)oc2C1=O` [Compound B39]: in data set [1], the Emax is 25% and the EC50 was greater than 30200 nM.
